Data as given in patent US20120201868A1, “TREATMENT AND PREVENTION OF HIV INFECTION” (priority 2009, published 2012).
Where “and” joins values, the source holds several entries; their conditions need not be identical. Equal entries are not always repeated. Where two headings read alike, the source gives them in different places.

Experiments:
[1] = in vivo, po; cited from earlier work
[2] = Plasma kinetics after intravenous injection of brecanavir solution in rats; type: in vivo; conditions: for clearance / AUC(0-t): rat, plasma, iv
Procedure: FIG. 1: Individual plasma concentration (ng/ml) versus time profiles following intravenous dosing of a solution of brecanavir in rats at 2 mg/kg.
Brecanavir was injected intraveneously as a 1 mg/ml solution (PEG400/saline 70:30) in rats (n=3) to determine the plasma kinetics of brecanavir in these animals. Plasma samples were collected from each of the rats at selected time points after administration; samples were analyzed for brecanavir concentrations with LC/MS. (See FIG. 1.)

[3] = Plasma kinetics after single subcutaneous injection of brecanavir solution in rats; type: in vivo, Sprague-Dawley rats; conditions: for bioavailability: s.c. solution, read-out: average absolute bioavailability (F)
Procedure: FIG. 2: Individual and mean plasma concentrations of brecanavir following single subcutaneous injection of a brecanavir solution to rats at 16 (Δ) and 56 mg/kg (∘).
Sprague-Dawley rats (Crl:CD® (SD)IGS) of 200-300 g were injected once subcutaneously with an aqueous solution of brecanavir at 16 (n=4) and at 56 (n=4) mg/kg. The solution was prepared one day before dose administration; brecanavir was formulated in an aqueous 30% (w/v) DMA/50% (w/v) PEG400 solution at 35 mg/ml. The ingredients of the solution were: brecanavir, DMA 30% (w/v), PEG 400 50% (w/v) and pyrogenic free water. The content of brecanavir in the formulation was checked using LC-UV. The concentration of brecanavir in the formulation was 35 mg/ml.
Blood samples (0.3 ml on EDTA) were collected from the rats via the tail vein at 1, 2, 4, 7 and 24 h and further at 3, 4, 8, 14, 29, 42 and 56 days after dosing. Plasma samples were analyzed for brecanavir with a qualified research method on LC/MS/MS. Plasma concentrations were plotted as a function of time after dosing (FIG. 2). Pharmacokinetic parameters were calculated using WinNonlin software. Subcutaneous injection of an aqueous solution of brecanavir in rats produced an extended release pharmacokinetic profile with duration of at least 8 weeks (FIG. 2).

[4] = system: wild type HIV as well as mutated variants; conditions: in words; cited from earlier work
[5] = individual rats, i.v. solution, 2 mg/kg
[6] = mean of n=3 rats, i.v. solution, 2 mg/kg
[7] = 2 mg/kg, mean of n=3 rats, i.v. solution
[8] = individual rats, single s.c. solution, 16 mg/kg
[9] = individual rats, single s.c. solution, 56 mg/kg

Cc1nc(COc2ccc(C[C@H](NC(=O)O[C@H]3CO[C@H]4OCC[C@H]43)[C@H](O)CN(CC(C)C)S(=O)(=O)c3ccc4c(c3)OCO4)cc2)cs1 [brecanavir, [(3R,3aS,6aR)-2,3,3a,4,5,6a-hexahydro-furo[5,4-b]furan-3-yl] N-[(2S,3R)-4-(1,3-benzodioxol-5-ylsulfonyl-(2-methylpropyl)-amino)-3-hydroxy-1-[4-[(2-methyl-1,3-thiazol-4-yl)methoxy]phenyl]butan-2-yl]-carbamate]
brecanavir exposures [1]: insufficient to inhibit PI-resistant virus
AUClast ([2]; individual rats, i.v. solution (PEG400/saline 70:30, 1 mg/ml), 2 mg/kg): 1066 ng·h/mL and 1149 ng·h/mL
Cl [2, 5]: 30 mL/min/kg and 28.3 mL/min/kg
Vc [2, 5]: 0.70 L/kg and 0.46 L/kg and 0.52 L/kg
t1/2β [2, 5]: 2.3 h and 1.5 h (2×)
Vc [2, 6]: 0.56 L/kg
t1/2β [2, 6]: 1.8 h
clearance ([2]; 2 mg/kg, individual rats, i.v. solution): 23.3 mL/min/kg
AUC(0-t) ([2]; 2 mg/kg, individual rats, i.v. solution (PEG400/saline 70:30, 1 mg/ml), 2 mg/kg): 1370 ng·h/mL
AUC(0-t) [2, 7]: 1200 ng·h/mL
clearance [2, 7]: 28.3 mL/min/kg
distribution volume ([2]; rats, i.v. injection, in words): moderate to small distribution volume
plasma clearance ([2]; rats, i.v. injection, in words): moderate plasma clearance
AUC(0-t) ([3]; Sprague-Dawley (Crl:CD(SD)IGS), rat, plasma, sc, 16 mg/kg, individual rats, single s.c. solution, 16 mg/kg): 6500 ng·h/mL
AUC(0-t) ([3]; Sprague-Dawley (Crl:CD(SD)IGS), rat, plasma, sc, 16 mg/kg, mean of n=4 rats, single s.c. solution, 16 mg/kg): 8720 ng·h/mL
Cmax ([3]; Sprague-Dawley (Crl:CD(SD)IGS), rat, plasma, sc, 16 mg/kg, mean of n=4 rats, single s.c. solution, 16 mg/kg, read-out: Cmax): 369 ng/mL
AUC(0-t) ([3]; Sprague-Dawley (Crl:CD(SD)IGS), rat, plasma, sc, 56 mg/kg, individual rats, single s.c. solution, 56 mg/kg): 29900 ng·h/mL
AUC(0-t) ([3]; Sprague-Dawley (Crl:CD(SD)IGS), rat, plasma, sc, 56 mg/kg, mean of n=4 rats, single s.c. solution, 56 mg/kg): 21700 ng·h/mL
Cmax ([3]; Sprague-Dawley (Crl:CD(SD)IGS), rat, plasma, sc, 56 mg/kg, mean of n=4 rats, single s.c. solution, 56 mg/kg, read-out: Cmax): 322 ng/mL
bioavailability ([3]; Sprague-Dawley (Crl:CD(SD)IGS), rat, plasma, sc, rats, 16 mg/kg): 91%
bioavailability ([3]; Sprague-Dawley (Crl:CD(SD)IGS), rat, plasma, sc, rats, 56 mg/kg): 66%
Cmax ([3]; individual rats, single s.c. solution (30% DMA/50% PEG400, 35 mg/ml), 16 mg/kg): 273 ng/mL and 289 ng/mL and 591 ng/mL and 234 ng/mL
AUClast [3, 8]: 9630 ng·h/mL and 9291 ng·h/mL and 9448 ng·h/mL
t1/2λz [3, 8]: 10.9 days and 5.58 days and 22.3 days and 17 days
AUClast [3, 9]: 17602 ng·h/mL and 24284 ng·h/mL and 15221 ng·h/mL
Cmax [3, 9]: 360 ng/mL and 204 ng/mL and 417 ng/mL and 305 ng/mL
t1/2λz [3, 9]: 53 days and 16.2 days and 19.2 days and 44.67 days
t1/2λz ([3]; mean of n=4 rats, single s.c. solution, 16 mg/kg): 14 days
t1/2λz ([3]; mean of n=4 rats, single s.c. solution, 56 mg/kg): 33.2 days
duration of extended release pharmacokinetic profile ([3]; rats, s.c. aqueous solution): at least 8 weeks
absorption into the systemic circulation ([3]; rats, s.c. injection of a high dose solution, in words): very slow absorption
activity against wild type HIV and mutated variants [4]: pronounced activity
